Target: T1, recombinant human LTA4 hydrolase (rhLTA4H) (Homo sapiens, UniProt P09960)
T1 construct: made in house; host or cells: Spodoptera frugiperda (Sf-9) cells, baculovirus (pFastBac1)
T1 sequence (P09960 1-611): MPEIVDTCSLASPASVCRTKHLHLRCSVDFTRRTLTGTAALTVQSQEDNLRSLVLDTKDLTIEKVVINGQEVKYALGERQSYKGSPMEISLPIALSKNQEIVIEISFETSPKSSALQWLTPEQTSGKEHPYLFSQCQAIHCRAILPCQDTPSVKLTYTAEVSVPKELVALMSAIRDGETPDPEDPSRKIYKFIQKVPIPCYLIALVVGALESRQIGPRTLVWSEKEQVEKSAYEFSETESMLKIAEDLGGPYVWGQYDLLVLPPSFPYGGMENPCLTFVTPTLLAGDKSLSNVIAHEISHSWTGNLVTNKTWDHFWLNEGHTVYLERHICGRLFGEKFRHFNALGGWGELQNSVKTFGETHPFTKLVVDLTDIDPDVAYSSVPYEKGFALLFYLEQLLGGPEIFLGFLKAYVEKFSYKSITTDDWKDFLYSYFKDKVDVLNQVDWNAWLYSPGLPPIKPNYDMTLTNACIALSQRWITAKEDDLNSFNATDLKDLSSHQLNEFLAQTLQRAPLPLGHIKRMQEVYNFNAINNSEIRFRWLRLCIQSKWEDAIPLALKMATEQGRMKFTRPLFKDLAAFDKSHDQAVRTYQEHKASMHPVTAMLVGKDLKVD
Assay: Recombinant Human LTA4 Hydrolase Assay for LTA4 Hydrolase Inhibitor Activity
Assay type: biochemical
Conditions: average of results obtained; LTB4 quantified by enzyme-linked immunoassay
Outline: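 LTB4 formation, quantified by EIA after 10 min at rt, was the read-out once 9 ng LTA4 (free acid) was added to recombinant human enzyme (36 ng, Sf-9 expressed) that had sat 10 min with compound. Buffer: 0.1 M potassium phosphate pH 7.4 with fatty-acid-free BSA; IC50 by 4-parameter fit.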

| Structure (SMILES) | Ki |
| --- | --- |
| NC(=O)N1C[C@H]2C[C@@H]1CN2Cc1ccc(Oc2nc3cccc(Cl)c3s2)cc1 [Example 196, (R,R)-5-[4-(7-Chloro-benzothiazol-2-yloxy)-benzyl]-2,5-diaza-bicyclo[2.2.1]heptane-2-carboxylic acid amide] | 793 nM |
| CC(=O)N1CC2CCC(C1)N2CCOc1ccc(Oc2nc3cc(F)ccc3s2)cc1 [Example 199, meso-1-(8-{2-[4-(5-Fluoro-benzothiazol-2-yloxy)-phenoxy]-ethyl}-3,8-diaza-bicyclo[3.2.1]oct-3-yl)-ethanone] | 20 nM |
| Cc1ccc2nc(Oc3ccc(CN4[C@@H]5CC[C@H]4C[C@H](NS(C)(=O)=O)C5)cc3)sc2c1 [Example 200, meso-exo-N-{8-[4-(6-Methyl-benzothiazol-2-yloxy)-benzyl]-8-aza-bicyclo[3.2.1]oct-3-yl}-methanesulfonamide] | 65 nM |
| CS(=O)(=O)N1C[C@H]2C[C@@H]1CN2Cc1ccc(Oc2nc3ccc(F)cc3s2)cc1 [Example 201, (R,R)-6-Fluoro-2-[4-(5-methanesulfonyl-2,5-diaza-bicyclo[2.2.1]hept-2-ylmethyl)-phenoxy]-benzothiazole] | 145 nM |
| CS(=O)(=O)N1C[C@H]2C[C@@H]1CN2CCOc1ccc(Oc2nc3c(Cl)cccc3s2)cc1 [Example 203, (R,R)-4-Chloro-2-{4-[2-(5-methanesulfonyl-2,5-diaza-bicyclo[2.2.1]hept-2-yl)-ethoxy]-phenoxy}-benzothiazole] | 293 nM |
| CS(=O)(=O)N1C[C@@H]2C[C@H]1CN2Cc1ccc(Oc2nc3cc(Cl)ccc3s2)cc1 [Example 206, (S,S)-5-Chloro-2-[4-(5-methanesulfonyl-2,5-diaza-bicyclo[2.2.1]hept-2-ylmethyl)-phenoxy]-benzothiazole] | 1100 nM |
| CS(=O)(=O)N[C@H]1C[C@H]2CC[C@@H](C1)N2Cc1ccc(Oc2nc3cc(F)ccc3s2)cc1 [Example 208, meso-endo-N-{8-[4-(5-Fluoro-benzothiazol-2-yloxy)-benzyl]-8-aza-bicyclo[3.2.1]oct-3-yl}-methanesulfonamide] | 22 nM |
| CS(=O)(=O)N1CC2CCC(C1)N2CCc1ccc(Oc2nc3cc(F)ccc3s2)cc1 [Example 210, meso-5-Fluoro-2-{4-[2-(3-methanesulfonyl-3,8-diaza-bicyclo[3.2.1]oct-8-yl)-ethyl]-phenoxy}-benzothiazole] | 163 nM |
| CS(=O)(=O)N1CC2CCC(C1)N2CCOc1ccc(Oc2nc3cccc(F)c3s2)cc1 [Example 211, meso-7-Fluoro-2-{4-[2-(3-methanesulfonyl-3,8-diaza-bicyclo[3.2.1]oct-8-yl)-ethoxy]-phenoxy}-benzothiazole] | 159 nM |
| Cc1ccc2nc(Oc3ccc(CCN4C5CCC4CN(S(C)(=O)=O)C5)cc3)sc2c1 [Example 214, meso-2-{4-[2-(3-Methanesulfonyl-3,8-diaza-bicyclo[3.2.1]oct-8-yl)-ethyl]-phenoxy}-6-methyl-benzothiazole] | 543 nM |
| CS(=O)(=O)N[C@@H]1C[C@H]2CC[C@@H](C1)N2Cc1ccc(Oc2nc3cccc(Cl)c3s2)cc1 [Example 215, meso-exo-N-{8-[4-(7-Chloro-benzothiazol-2-yloxy)-benzyl]-8-aza-bicyclo[3.2.1]oct-3-yl}-methanesulfonamide] | 90 nM |
| CC(=O)N[C@H]1C[C@H]2CC[C@@H](C1)N2CCOc1ccc(Oc2nc3cc(F)ccc3s2)cc1 [Example 216, meso-endo-N-(8-{2-[4-(5-Fluoro-benzothiazol-2-yloxy)-phenoxy]-ethyl}-8-aza-bicyclo[3.2.1]oct-3-yl)-acetamide] | 100 nM |
| CC(=O)N1C[C@H]2C[C@@H]1CN2CCOc1ccc(Oc2nc3cccc(F)c3s2)cc1 [Example 218, (R,R)-1-(5-{2-[4-(7-Fluoro-benzothiazol-2-yloxy)-phenoxy]-ethyl}-2,5-diaza-bicyclo[2.2.1]hept-2-yl)-ethanone] | 20 nM |
| NC(=O)N[C@H]1C[C@H]2CC[C@@H](C1)N2CCOc1ccc(Oc2nc3cc(F)ccc3s2)cc1 [Example 219, meso-endo-(8-{2-[4-(5-Fluoro-benzothiazol-2-yloxy)-phenoxy]-ethyl}-8-aza-bicyclo[3.2.1]oct-3-yl)-urea] | 15 nM |
| Cc1ccc2nc(Oc3ccc(OCCN[C@H]4C[C@H]5CC[C@@H](C4)N5S(C)(=O)=O)cc3)sc2c1 [Example 220, meso-endo-(8-Methanesulfonyl-8-aza-bicyclo[3.2.1]oct-3-yl)-{2-[4-(6-methyl-benzothiazol-2-yloxy)-phenoxy]-ethyl}-amine] | 445 nM |
| CS(=O)(=O)N[C@H]1C[C@H]2CC[C@@H](C1)N2CCOc1ccc(Oc2nc3ccc(Cl)cc3s2)cc1 [Example 222, meso-endo-N-(8-{2-[4-(6-Chloro-benzothiazol-2-yloxy)-phenoxy]-ethyl}-8-aza-bicyclo[3.2.1]oct-3-yl)-methanesulfonamide] | 130 nM |
| CS(=O)(=O)N1C[C@H]2C[C@@H]1CN2CCOc1ccc(Oc2nc3ccccc3s2)cc1 [Example 223, (R,R)-2-{4-[2-(5-Methanesulfonyl-2,5-diaza-bicyclo[2.2.1]hept-2-yl)-ethoxy]-phenoxy}-benzothiazole] | 64 nM |

Now from value to compound:

| Ki | Structure (SMILES) |
| --- | --- |
| 85 nM | CC(=O)N1[C@@H]2CC[C@H]1C[C@@H](NCCc1ccc(Oc3nc4cc(F)ccc4s3)cc1)C2 [Example 197, meso-endo-1-(3-{2-[4-(5-Fluoro-benzothiazol-2-yloxy)-phenyl]-ethylamino}-8-aza-bicyclo[3.2.1]oct-8-yl)-ethanone] |
| 9 nM | NC(=O)N1[C@@H]2CC[C@H]1C[C@@H](NCc1ccc(Oc3nc4c(F)cccc4s3)cc1)C2 [Example 198, meso-endo-3-[4-(4-Fluoro-benzothiazol-2-yloxy)-benzylamino]-8-aza-bicyclo[3.2.1]octane-8-carboxylic acid amide] |
| 127 nM | NC(=O)N[C@@H]1C[C@H]2CC[C@@H](C1)N2CCc1ccc(Oc2nc3cc(Cl)ccc3s2)cc1 [Example 202, meso-exo-(8-{2-[4-(5-Chloro-benzothiazol-2-yloxy)-phenyl]-ethyl}-8-aza-bicyclo[3.2.1]oct-3-yl)-urea] |
| 5 nM | NC(=O)N[C@@H]1C[C@H]2CC[C@@H](C1)N2CCOc1ccc(Oc2nc3c(F)cccc3s2)cc1 [Example 204, meso-exo-(8-{2-[4-(4-Fluoro-benzothiazol-2-yloxy)-phenoxy]-ethyl}-8-aza-bicyclo[3.2.1]oct-3-yl)-urea] |
| 394 nM | CS(=O)(=O)N1[C@@H]2CC[C@H]1C[C@H](NCc1ccc(Oc3nc4ccc(F)cc4s3)cc1)C2 [Example 205, meso-exo-[4-(6-Fluoro-benzothiazol-2-yloxy)-benzyl]-(8-methanesulfonyl-8-aza-bicyclo[3.2.1]oct-3-yl)-amine] |
| 6 nM | CC(=O)N1C[C@@H]2C[C@H]1CN2Cc1ccc(Oc2nc3c(F)cccc3s2)cc1 [Example 207, (S,S)-1-{5-[4-(4-Fluoro-benzothiazol-2-yloxy)-benzyl]-2,5-diaza-bicyclo[2.2.1]hept-2-yl}-ethanone] |
| 69 nM | CC(=O)N1[C@@H]2CC[C@H]1C[C@H](NCCc1ccc(Oc3nc4ccc(F)cc4s3)cc1)C2 [Example 209, meso-exo-1-(3-{2-[4-(6-Fluoro-benzothiazol-2-yloxy)-phenyl]-ethylamino}-8-aza-bicyclo[3.2.1]oct-8-yl)-ethanone] |
| 248 nM | NC(=O)N1[C@@H]2CC[C@H]1C[C@H](NCCc1ccc(Oc3nc4c(F)cccc4s3)cc1)C2 [Example 212, meso-exo-3-{2-[4-(4-Fluoro-benzothiazol-2-yloxy)-phenyl]-ethylamino}-8-aza-bicyclo[3.2.1]octane-8-carboxylic acid amide] |
| 20 nM | CS(=O)(=O)N1[C@@H]2CC[C@H]1C[C@H](NCCOc1ccc(Oc3nc4c(F)cccc4s3)cc1)C2 [Example 213, meso-exo-{2-[4-(4-Fluoro-benzothiazol-2-yloxy)-phenoxy]-ethyl}-(8-methanesulfonyl-8-aza-bicyclo[3.2.1]oct-3-yl)-amine] |
| 30 nM | CS(=O)(=O)N1[C@@H]2CC[C@H]1C[C@H](NCCOc1ccc(Oc3nc4c(F)cccc4s3)cc1)C2 [Example 217, meso-exo-{2-[4-(4-Fluoro-benzothiazol-2-yloxy)-phenoxy]-ethyl}-(8-methanesulfonyl-8-aza-bicyclo[3.2.1]oct-3-yl)-amine] |
| 802 nM | NC(=O)N1[C@@H]2CC[C@H]1C[C@@H](NCCOc1ccc(Oc3nc4c(Cl)cccc4s3)cc1)C2 [Example 221, meso-endo-3-{2-[4-(4-Chloro-benzothiazol-2-yloxy)-phenoxy]-ethylamino}-8-aza-bicyclo[3.2.1]octane-8-carboxylic acid amide] |
| 33 nM | CC(=O)N1[C@@H]2CC[C@H]1C[C@@H](NCCc1ccc(Oc3nc4ccc(Cl)cc4s3)cc1)C2 [Example 224, meso-endo-1-(3-{2-[4-(6-Chloro-benzothiazol-2-yloxy)-phenyl]-ethylamino}-8-aza-bicyclo[3.2.1]oct-8-yl)-ethanone] |

From patent publication US8344008B2 (Janssen Pharmaceutica NV, priority 2007, dated 2013)
